Test results reported in publication PMC8015227, “Understanding the Metabolism of Proteolysis Targeting Chimeras (PROTACs): The Next Step toward Pharmaceutical Applications” (Journal of Medicinal Chemistry, 2020).
Where two headings read alike, the source gives them in different places.

Assays:
[1] = Metabolic stability in cryopreserved human hepatocytes; type: in vitro ADME; details: human
Description: (§1) Cryopreserved human hepatocytes (pooled suspension hepatocytes, Gibco) were thawed placing in a 37 °C shaking water bath according to the manufacturer’s specifications and resuspended in Williams E medium (WEM) to have 1 × 10^6 cells/mL. Samples with the test compound at 1 μM were incubated at 37 °C, and aliquots of 50 μL were collected at 0, 10, 30, 60, 120, and 240 min. The incubations were quenched 1:3 with ice-cold acetonitrile (containing 1 μM labetalol as the internal standard). Samples were then centrifuged at 12000 rpm for 5 min at 4 °C. The supernatant was concentrated by evaporation under a nitrogen stream and reconstituted with DMSO. Blank was prepared similarly but in the absence of the investigated compounds.
(§2) A Thermo Q-exactive mass spectrometer (Thermo Fisher Scientific, Waltham, MA) was used. The LC system, governed by Chromeleon X-press software, consists of a Binary pump, a thermostated autosampler, and a column compartment, all Dionex Ultimate 3000 series modules (Thermo Fisher Scientific, Waltham, MA). A volume of 2 μL was injected for each sample. Chromatographic separation of analytes was conducted in reverse-phase chromatography. In brief, a Luna Omega 1.6 μm Polar (C18, 2.1 mm × 150 mm) was used, and the mobile phases consisted of water (A) and acetonitrile (B), both containing formic acid at 0.1%. The LC flow was set at 0.400 mL/min in a 12 min gradient elution as follows: 99.5:0.5 (A/B) to 5:95 (A/B) over 10 min, 5:95 (A/B) for 2 min, and then reversion back to 99.5:0.5 (A/B) over 2.5 min. The column was operating at a constant temperature of 40 °C.

[2] = Nonenzymatic stability of 1 (dBet1) in the autosampler in four solutions during LC-MS; type: physicochemical; details: for nonenzymatic stability in autosampler: 12 h
Description: dBet1 (1) (10 mM in DMSO) was diluted 1:1000 in PBS/ACN (50:50, vol/vol) to afford a final concentration of 10 μM; 100 μL was drawn and dried under a gentle nitrogen stream at 40 °C for 30 min. After that evaporation was completed, the dry residue was reconstituted with 100 μL of DMSO. Additional three solutions of dBet1 (1) (10 μM) were prepared in PBS, PBS/ACN (50:50, vol/vol), and DMSO. The four solutions were stored into the autosampler of the LC apparatus at 37 °C for 12 h. Injections (2 μL) were programmed every 3 h.

[3] = test system: cryopreserved human hepatocytes; assay: Metabolic stability in cryopreserved human hepatocytes; type: in vitro ADME; details: for substrate left: cryopreserved human hepatocytes, end of incubation (240 min)
Description: as §1, §2

[4] = cryopreserved human hepatocytes (pooled, suspension), Figures 3-5, cryopreserved human hepatocytes, read-out: half-life (t1/2)
[5] = cryopreserved human hepatocytes (pooled, suspension), Table S1, PROTACs, cryopreserved human hepatocytes, read-out: t1/2
[6] = cryopreserved human hepatocytes (pooled, suspension), supplement CSV, human hepatocytes, read-out: HLH t1/2
[7] = cryopreserved human hepatocytes (pooled, suspension), Table 1, incubation in cryopreserved human hepatocytes, 1 μM, up to 240 min, read-out: t1/2
[8] = Table 1, biotransformations observed in cryopreserved human hepatocytes
[9] = supplement CSV, in brackets, final time point 240 min
[10] = cryopreserved human hepatocytes (pooled, suspension), Table 2, cryopreserved human hepatocytes, read-out: t1/2
[11] = Table 2, biotransformations observed in cryopreserved human hepatocytes
[12] = cryopreserved human hepatocytes (pooled, suspension), Table S2, free ligands, cryopreserved human hepatocytes, read-out: t1/2

SMILES	half-life at 1 µM [1, 4]	half-life at 1 µM [1, 5]	half-life at 1 µM [1, 6]	other results
Cc1sc2c(c1C)C(c1ccc(Cl)cc1)=N[C@@H](CC(=O)NCCCCNC(=O)COc1cccc3c1C(=O)N(C1CCC(=O)NC1=O)C3=O)c1nnc(C)n1-2 (stereo partly shown) [Compound 1, dBet1]	135 min	135 min	135 min	nonenzymatic stability in autosampler ([2]; PBS/ACN (1:1 v/v), 37 °C): Degradation was also observed; substrate degradation within the first three hours ([2]; PBS/ACN-DMSO protocol, autosampler 37 °C): about 10%; nonenzymatic stability in autosampler ([2]; pure DMSO, 37 °C): very stable over time; nonenzymatic stability in autosampler ([2]; pure PBS pH 7.4, 37 °C): rapidly degrades
Cc1sc2c(c1C)C(c1ccc(Cl)cc1)=N[C@@H](CC(=O)NCCCCCCCCNc1cccc3c1C(=O)N(C1CCC(=O)NC1=O)C3=O)c1nnc(C)n1-2 (stereo partly drawn) [Compound 4, 2-((S)-4-(4-Chlorophenyl)-2,3,9-trimethyl-6H-thieno[3,2-f][1,2,4]triazolo[4,3-a][1,4]diazepin-6-yl)-N-(8-((2-(2,6-dioxopiperidin-3-yl)-1,3-dioxoisoindolin-4-yl)amino)octyl)acetamide]	–	55.1 min	55.1 min	half-life at 1 µM [1, 7]: 55.1 min; Reaction (soft spots) [3, 8]: a. N-dealkylation (x2) b. Aliphatic-hydroxylation c. Dehydrogenation*
Cc1ncsc1-c1ccc([C@H](C)NC(=O)[C@@H]2C[C@@H](O)CN2C(=O)[C@@H](NC(=O)CCN2CCN(C(=O)C[C@@H]3N=C(c4ccc(Cl)cc4)c4c(sc(C)c4C)-n4c(C)nnc43)CC2)C(C)(C)C)cc1 [Compound 11, (2S,4R)-1-((S)-2-(3-(4-(2-((S)-4-(4-Chlorophenyl)-2,3,9-trimethyl-6H-thieno[3,2-f][1,2,4]triazolo[4,3-a][1,4]diazepin-6-yl)acetyl)piperazin-1-yl)propanamido)-3,3-dimethylbutanoyl)-4-hydroxy-N-((S)-1-(4-(4-methylthiazol-5-yl)phenyl)ethyl)pyrrolidine-2-carboxamide]	> 240 min	> 240 min	> 240 min	HLH percentage of substrate left at the final time point of analysis [3, 9]: 70.0%
Cc1ncsc1-c1ccc([C@H](C)NC(=O)[C@@H]2C[C@@H](O)CN2C(=O)[C@@H](NC(=O)CCCCn2cc(CN3CCN(C(=O)c4cc(Cc5n[nH]c(=O)c6ccccc56)ccc4F)CC3)nn2)C(C)(C)C)cc1 [Compound 24, (2S,4R)-1-((S)-2-(5-(4-((4-(2-Fluoro-5-((4-oxo-3,4-dihydrophthalazin-1-yl)methyl)benzoyl)piperazin-1-yl)methyl)-1H-1,2,3-triazol-1-yl)pentanamido)-3,3-dimethylbutanoyl)-4-hydroxy-N-((S)-1-(4-(4-methylthiazol-5-yl)phenyl)ethyl)pyrrolidine-2-carboxamide]	> 240 min	> 240 min	> 240 min	substrate left [3]: about 84%; HLH percentage of substrate left at the final time point of analysis [3, 9]: 84.3%
Cc1ncsc1-c1ccc([C@H](C)NC(=O)[C@@H]2C[C@@H](O)CN2C(=O)[C@@H](NC(=O)CCCCn2cc(CCCC(=O)N3CCN(C(=O)c4cc(Cc5n[nH]c(=O)c6ccccc56)ccc4F)CC3)nn2)C(C)(C)C)cc1 [Compound 25, (2S,4R)-1-((S)-2-(5-(4-(4-(4-(2-Fluoro-5-((4-oxo-3,4-dihydrophthalazin-1-yl)methyl)benzoyl)piperazin-1-yl)-4-oxobutyl)-1H-1,2,3-triazol-1-yl)pentanamido)-3,3-dimethylbutanoyl)-4-hydroxy-N-((S)-1-(4-(4-methylthiazol-5-yl)phenyl)ethyl)pyrrolidine-2-carboxamide]	> 240 min	> 240 min	> 240 min	substrate left [3]: about 84%; HLH percentage of substrate left at the final time point of analysis [3, 9]: 84.7%
O=C(COc1cccc2c1C(=O)N(C1CCC(=O)NC1=O)C2=O)NCCCCCCCCNC(=O)COc1c(-c2csc(N3CCOCC3)n2)ccc(F)c1F (stereo not shown) [Compound 26, 2-(2,3-Difluoro-6-(2-morpholinothiazol-4-yl)phenoxy)-N-(8-(2-((2-(2,6-dioxopiperidin-3-yl)-1,3-dioxoisoindolin-4-yl)oxy)acetamido)octyl)acetamide]	8.4 min	8.4 min	8.4 min	half-life at 1 µM [1, 10]: 8.4 min; Reaction (soft spots) [3, 11]: a. Amide hydrolysis b. N-dealkylation c. O-dealkylation
O=C(COc1cccc2c1C(=O)N(C1CCC(=O)NC1=O)C2=O)NCCOCCOCCNC(=O)COc1c(-c2csc(N3CCOCC3)n2)ccc(F)c1F (stereo not shown) [Compound 27, 2-(2,3-Difluoro-6-(2-morpholinothiazol-4-yl)phenoxy)-N-(2-(2-(2-(2-((2-(2,6-dioxopiperidin-3-yl)-1,3-dioxoisoindolin-4-yl)oxy)acetamido)ethoxy)ethoxy)ethyl)acetamide]	–	39.4 min	39.4 min	half-life at 1 µM [1, 10]: 39.4 min; Reaction (soft spots) [3, 11]: a. Amide hydrolysis b. O-dealkylation (x3) c. Aliphatic-hydroxylation
O=C(COc1c(-c2csc(N3CCOCC3)n2)ccc(F)c1F)NCCCCCCCCNc1cccc2c1C(=O)N(C1CCC(=O)NC1=O)C2=O (stereo not shown) [Compound 30, 2-(2,3-Difluoro-6-(2-morpholinothiazol-4-yl)phenoxy)-N-(8-((2-(2,6-dioxopiperidin-3-yl)-1,3-dioxoisoindolin-4-yl)amino)octyl)acetamide]	–	47.6 min	47.6 min	half-life at 1 µM [1, 10]: 47.6 min; Reaction (soft spots) [3, 11]: a. Amide hydrolysis b. N-dealkylation c. O-dealkylation d. Aliphatic-hydroxylation
O=C1CCC(N2C(=O)c3cccc(NCCOCCOCCOc4c(-c5csc(N6CCOCC6)n5)ccc(F)c4F)c3C2=O)C(=O)N1 (stereo not shown) [Compound 32, 4-((2-(2-(2-(2,3-Difluoro-6-(2-morpholinothiazol-4-yl)phenoxy)ethoxy)ethoxy)ethyl)amino)-2-(2,6-dioxopiperidin-3-yl)isoindoline-1,3-dione]	–	45.3 min	45.3 min	–
Cc1ncsc1-c1ccc([C@H](C)NC(=O)[C@@H]2C[C@@H](O)CN2C(=O)[C@@H](NC(=O)COCCCNC(=O)COc2c(-c3csc(N4CCOCC4)n3)ccc(F)c2F)C(C)(C)C)cc1 [Compound 36]	–	25.2 min	25.2 min	–
Cc1sc2c(c1C)C(c1ccc(Cl)cc1)=N[C@@H](CC(=O)O)c1nnc(C)n1-2 [Compound 43, (+)-JQ1, reference compound]	–	–	–	half-life at 1 µM ([1]; hepatocytes, HLH t1/2 (min)): > 240 min; half-life at 1 µM ([1]; hepatocytes, t1/2 (min)): > 240 min; Reaction (soft spots) [3]: a. Aliphatic-hydroxylation; HLH percentage of substrate left at the final time point of analysis ([3]; human, 240 min, 1 µM): 100.0%

Further lines, with some results ahead:

half-life at 1 µM [1, 4]	half-life at 1 µM [1, 5]	half-life at 1 µM [1, 6]	SMILES	other results
–	37.6 min	37.6 min	Cc1ncsc1-c1ccc([C@H](C)NC(=O)[C@@H]2C[C@@H](O)CN2C(=O)[C@@H](NC(=O)COCCOCCNC(=O)COc2c(-c3csc(N4CCOCC4)n3)ccc(F)c2F)C(C)(C)C)cc1 [Compound 37]	half-life at 1 µM [1, 7]: 37.6 min; Reaction (soft spots) [3, 8]: a. O-dealkylation (x5) b. Amide Hydrolysis (x2) c. Glucuronidation d. Dehydrogenation
–	67.6 min	67.6 min	Cc1ncsc1-c1ccc([C@H](C)NC(=O)[C@@H]2C[C@@H](O)CN2C(=O)[C@@H](NC(=O)CCCCCCCOc2c(-c3csc(N4CCOCC4)n3)ccc(F)c2F)C(C)(C)C)cc1 [Compound 38]	–
40.1 min	40.1 min	40.1 min	Cc1ncsc1-c1ccc([C@H](C)NC(=O)[C@@H]2C[C@@H](O)CN2C(=O)[C@@H](NC(=O)CCCCn2cc(COc3c(-c4csc(N5CCOCC5)n4)ccc(F)c3F)nn2)C(C)(C)C)cc1 [Compound 39]	–
–	–	140 min	Nc1cccc2c1C(=O)N(C1CCC(=O)NC1=O)C2=O (stereo not shown) [Compound 41, pomalidomide, reference compound]	half-life at 1 µM [1, 7]: 140 min; half-life at 1 µM [1, 12]: 140 min; Reaction (soft spots) [3, 8]: a. Amide Hydrolysis (x4)
–	–	92 min	Cc1ncsc1-c1ccc([C@H](C)NC(=O)[C@@H]2C[C@@H](O)CN2C(=O)[C@@H](N)C(C)(C)C)cc1 [Compound 42, reference compound]	half-life at 1 µM [1, 7]: 92 min; half-life at 1 µM [1, 12]: 92 min; Reaction (soft spots) [3, 8]: a. N-dealkylation b. Aromatic hydroxylation c. Aliphatic-hydroxylation d. Aliphatic-carbonylation
–	–	99.7 min	O=C(O)c1ccc2c(c1)nc(Nc1cccc(Cl)c1)c1ccncc12 [Compound 44, CX4945, reference compound]	half-life at 1 µM [1, 12]: 99.7 min
–	–	> 240 min	Cl.O=C(c1cc(Cc2n[nH]c(=O)c3ccccc23)ccc1F)N1CCNCC1 [Compound 45, reference compound]	half-life at 1 µM [1, 12]: > 240 min; HLH percentage of substrate left at the final time point of analysis [3, 9]: 77.7%
< 20 min	–	18.3 min	Oc1c(-c2csc(N3CCOCC3)n2)ccc(F)c1F [Compound 46, reference compound]	half-life at 1 µM [1, 7]: 18.3 min; half-life at 1 µM [1, 12]: 18.3 min; Reaction (soft spots) [3, 8]: a. O-dealkylation b.Glucuronidation c. Aliphatic hydroxylation
